Drawing on BindingDB's records for doi:10.1016/0960-894X(95)00494-E (1995), this text covers Ki for 1 compound.

Structures are written as SMILES.

What is called Ki is the equilibrium dissociation constant of an inhibitor or competing ligand from its target.

This assay deals with Xaa-Pro dipeptidase (Sus scrofa). Briefly: Inhibitory activity against porcine kidney prolidase.

`NCC(=O)[C@@H]1CCC[C@H]1C(=O)O` [2-((1R,2R)-2-Carboxy-cyclopentyl)-2-oxo-ethyl-ammonium; chloride] displayed a Ki of 270 nM.
